Source: ChEMBL document CHEMBL4364319 (Eur J Med Chem, 2019)
Blank lines part the entries; values can stand above or below the compound they belong to. Active and inactive are the calls of the source. The rule behind the calls is not given here.

Columns and labels:
[1] = target: Dipeptidyl peptidase 8 (Homo sapiens, UniProt Q6V1X1); experiment: Inhibition of DPP8 (unknown origin) using Gly-Pro-AMC as substrate preincubated for 15 mins followed by substrate addition measured at 60 secs interval for 20 mins by fluorometic method
[2] = target: Dipeptidyl peptidase 9 (Homo sapiens, UniProt Q86TI2); experiment: Inhibition of DPP9 (unknown origin) using Gly-Pro-AMC as substrate preincubated for 15 mins followed by substrate addition measured at 60 secs interval for 20 mins by fluorometic method
[3] = test system: Rattus norvegicus; experiment: Anti-diabetic activity in Sprague-Dawley rat assessed as redcution in DPP4 inhibition in plasma at 10 mg/kg, po via gavage administered as single dose measured after 12 hrs post dose by fluorometric assay; format: functional, organism-based
[4] = Half life in Sprague-Dawley rat assessed as (R)-2-((8-(3-aminopiperidin-1-yl)-7-(but-2-yn-1-yl)-3-methyl-2,6-dioxo-2,3,6,7-tetrahydro-1H-purin-1-yl)methyl)-5-chlorobenzoic acid level at 10 mg/kg, po via gavage after 48 hrs by LC-MS/MS analysis; format: ADME, organism-based; conditions: in vivo
[5] = test system: Rattus norvegicus; experiment: Anti-diabetic activity in Sprague-Dawley rat assessed as redcution in DPP4 inhibition in plasma at 10 mg/kg, po via gavage administered as single dose measured up to 12 hrs post dose by fluorometric assay relative to control; conditions: read-out: INH
[6] = Tmax in Sprague-Dawley rat assessed as (R)-2-((8-(3-aminopiperidin-1-yl)-7-(but-2-yn-1-yl)-3-methyl-2,6-dioxo-2,3,6,7-tetrahydro-1H-purin-1-yl)methyl)-5-chlorobenzoic acid level at 10 mg/kg, po via gavage after 48 hrs by LC-MS/MS analysis; format: ADME, organism-based; conditions: in vivo
[7] = Cmax in Sprague-Dawley rat assessed as (R)-2-((8-(3-aminopiperidin-1-yl)-7-(but-2-yn-1-yl)-3-methyl-2,6-dioxo-2,3,6,7-tetrahydro-1H-purin-1-yl)methyl)-5-chlorobenzoic acid level at 10 mg/kg, po via gavage after 48 hrs by LC-MS/MS analysis; format: ADME, organism-based; set-up: dose 10 mg/kg, route oral; conditions: in vivo
[8] = Half life in Sprague-Dawley rat at 10 mg/kg, po via gavage after 48 hrs by LC-MS/MS analysis; format: ADME, organism-based; conditions: in vivo
[9] = Tmax in Sprague-Dawley rat at 10 mg/kg, po via gavage after 48 hrs by LC-MS/MS analysis; format: ADME, organism-based; conditions: in vivo
[10] = Stability in Sprague-Dawley rat plasma assessed as compound remaining at 1 uM measured up to 120 mins by LC-MS/MS analysis relative to control; format: ADME, cell-free; conditions: read-out: Stability
[11] = Clearance in Sprague-Dawley rat assessed as (R)-2-((8-(3-aminopiperidin-1-yl)-7-(but-2-yn-1-yl)-3-methyl-2,6-dioxo-2,3,6,7-tetrahydro-1H-purin-1-yl)methyl)-5-chlorobenzoic acid level at 10 mg/kg, po via gavage after 48 hrs by LC-MS/MS analysis; format: ADME, organism-based; conditions: in vivo
[12] = Cytotoxicity against human LO2 cells assessed as cell viability at 20 uM after 48 hrs by MTT assay; format: cell-based, L02; conditions: read-out: Activity
[13] = AUC (0 to infinity) in Sprague-Dawley rat at 10 mg/kg, po via gavage after 48 hrs by LC-MS/MS analysis; format: ADME, organism-based; set-up: dose 10 mg/kg, route oral, time infinity; conditions: in vivo
[14] = Cmax in Sprague-Dawley rat at 10 mg/kg, po via gavage after 48 hrs by LC-MS/MS analysis; format: ADME, organism-based; set-up: dose 10 mg/kg, route oral; conditions: in vivo
[15] = Clearance in Sprague-Dawley rat at 10 mg/kg, po via gavage after 48 hrs by LC-MS/MS analysis; format: ADME, organism-based; conditions: in vivo
[16] = Oral bioavailability in Sprague-Dawley rat assessed as (R)-2-((8-(3-aminopiperidin-1-yl)-7-(but-2-yn-1-yl)-3-methyl-2,6-dioxo-2,3,6,7-tetrahydro-1H-purin-1-yl)methyl)-5-chlorobenzoic acid level at 10 mg/kg via gavage after 48 hrs by LC-MS/MS analysis; format: ADME, organism-based; conditions: in vivo
[17] = Stability in PBS at pH 7.4 assessed as compound remaining at 1 uM after 120 mins by LC-MS/MS analysis relative to control; format: physicochemical; conditions: read-out: Stability
[18] = AUC (0 to infinity) in Sprague-Dawley rat assessed as (R)-2-((8-(3-aminopiperidin-1-yl)-7-(but-2-yn-1-yl)-3-methyl-2,6-dioxo-2,3,6,7-tetrahydro-1H-purin-1-yl)methyl)-5-chlorobenzoic acid level at 10 mg/kg, po via gavage after 48 hrs by LC-MS/MS analysis; format: ADME, organism-based; set-up: dose 10 mg/kg, route oral, time infinity; conditions: in vivo
[19] = test system: Mus musculus; experiment: Anti-diabetic activity in db/db mouse assessed as reduction in blood glucose AUC (0 to 120 mins) at 10 mg/kg, po dosed once daily for 3 weeks following 12 hrs fasting and glucose challenge measured up to 120 mins relative to control; format: functional; set-up: scale not given: the % may be the effect or the level left
[20] = test system: Mus musculus; experiment: Anti-diabetic activity in 12 hrs-fasted ICR mouse assessed as reduction in blood glucose AUC (0 to 120 mins)at 10 mg/kg, po pretreated for 60 mins followed by glucose challenge and measured after 120 mins post glucose challenge by OGTT relative to control; format: functional; set-up: scale not given: the % may be the effect or the level left
[21] = test system: Mus musculus; experiment: Anti-diabetic activity in 8 hrs-fasted C57BL/6 db/db mouse assessed as reduction in blood glucose AUC (0 to 120 mins) at 10 mg/kg, po pretreated for 60 mins followed by glucose challenge and measured after 120 mins post glucose challenge by OGTT relative to control; format: functional; set-up: scale not given: the % may be the effect or the level left
[22] = Cmax in Sprague-Dawley rat at 5 mg/kg, iv measured after 48 hrs by LC-MS/MS analysis; format: ADME, organism-based; set-up: dose 5 mg/kg, route intravenous; conditions: in vivo
[23] = Half life in Sprague-Dawley rat at 5 mg/kg, iv measured after 48 hrs by LC-MS/MS analysis; format: ADME, organism-based; conditions: in vivo
[24] = AUC (0 to infinity) in Sprague-Dawley rat at 5 mg/kg, iv measured after 48 hrs by LC-MS/MS analysis; format: ADME, organism-based; set-up: dose 5 mg/kg, route intravenous, time infinity; conditions: in vivo
[25] = Clearance in Sprague-Dawley rat at 5 mg/kg, iv measured after 48 hrs by LC-MS/MS analysis; format: ADME, organism-based; conditions: in vivo
[26] = Drug degradation in PBS at pH 7.4 at 1 uM after 120 mins by LC-MS/MS analysis relative to control; format: physicochemical; conditions: read-out: Drug degradation
[27] = Stability in Sprague-Dawley rat plasma assessed as drug degradation at 1 uM after 5 mins by LC-MS/MS analysis relative to control relative to control; format: ADME, cell-free; conditions: read-out: Drug degradation
[28] = Stability in Sprague-Dawley rat plasma assessed as drug degradation at 1 uM after 120 mins by LC-MS/MS analysis relative to control relative to control; format: ADME, cell-free; conditions: read-out: Drug degradation

Dipeptidyl peptidase 9, sequence (Q86TI2 whole entry): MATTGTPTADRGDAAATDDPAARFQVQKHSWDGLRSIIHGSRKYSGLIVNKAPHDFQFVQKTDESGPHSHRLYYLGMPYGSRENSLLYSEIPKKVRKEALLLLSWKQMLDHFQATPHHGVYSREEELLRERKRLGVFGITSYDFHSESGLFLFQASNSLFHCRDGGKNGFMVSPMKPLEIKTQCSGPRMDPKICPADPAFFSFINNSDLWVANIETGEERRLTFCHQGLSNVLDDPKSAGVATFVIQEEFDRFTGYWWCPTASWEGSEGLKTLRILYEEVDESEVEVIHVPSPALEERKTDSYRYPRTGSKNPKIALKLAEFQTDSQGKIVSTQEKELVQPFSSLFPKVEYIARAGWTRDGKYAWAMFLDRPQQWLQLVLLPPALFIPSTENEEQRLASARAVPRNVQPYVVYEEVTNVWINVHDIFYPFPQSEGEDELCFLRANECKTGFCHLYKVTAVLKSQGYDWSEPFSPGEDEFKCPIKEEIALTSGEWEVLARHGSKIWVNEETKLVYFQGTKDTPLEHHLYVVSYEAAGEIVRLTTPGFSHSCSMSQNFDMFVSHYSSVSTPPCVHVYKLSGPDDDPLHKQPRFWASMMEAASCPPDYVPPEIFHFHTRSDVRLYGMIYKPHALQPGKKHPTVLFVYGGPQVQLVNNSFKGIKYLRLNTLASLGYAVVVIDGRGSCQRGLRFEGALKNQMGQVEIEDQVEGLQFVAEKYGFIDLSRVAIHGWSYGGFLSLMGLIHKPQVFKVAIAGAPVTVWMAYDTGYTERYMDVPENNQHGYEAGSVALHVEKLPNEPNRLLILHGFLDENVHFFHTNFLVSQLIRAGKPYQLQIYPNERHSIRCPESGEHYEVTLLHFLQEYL
Dipeptidyl peptidase 8, sequence (Q6V1X1 whole entry): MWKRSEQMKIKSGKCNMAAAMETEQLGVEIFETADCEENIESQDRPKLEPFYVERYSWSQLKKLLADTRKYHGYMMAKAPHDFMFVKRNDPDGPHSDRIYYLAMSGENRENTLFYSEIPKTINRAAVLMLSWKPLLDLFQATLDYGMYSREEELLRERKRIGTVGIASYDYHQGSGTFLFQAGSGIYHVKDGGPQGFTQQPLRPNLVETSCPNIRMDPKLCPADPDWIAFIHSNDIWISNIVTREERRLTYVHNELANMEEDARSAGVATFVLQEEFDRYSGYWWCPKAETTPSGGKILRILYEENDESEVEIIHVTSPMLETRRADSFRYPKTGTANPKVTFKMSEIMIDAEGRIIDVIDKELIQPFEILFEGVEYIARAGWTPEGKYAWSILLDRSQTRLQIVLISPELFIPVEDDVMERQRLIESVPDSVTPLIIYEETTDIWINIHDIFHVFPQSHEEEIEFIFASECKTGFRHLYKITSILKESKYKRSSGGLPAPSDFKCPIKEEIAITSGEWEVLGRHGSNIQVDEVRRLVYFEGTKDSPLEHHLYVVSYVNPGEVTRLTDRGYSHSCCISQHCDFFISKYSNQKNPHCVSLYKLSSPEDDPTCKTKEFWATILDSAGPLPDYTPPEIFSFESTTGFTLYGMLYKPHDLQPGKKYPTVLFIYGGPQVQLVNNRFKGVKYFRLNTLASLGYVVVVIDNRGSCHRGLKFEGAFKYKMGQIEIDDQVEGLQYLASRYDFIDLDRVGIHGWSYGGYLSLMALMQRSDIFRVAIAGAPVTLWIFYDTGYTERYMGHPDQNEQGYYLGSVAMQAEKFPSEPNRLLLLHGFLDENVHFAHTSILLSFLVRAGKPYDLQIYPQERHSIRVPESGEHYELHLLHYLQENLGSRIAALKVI

- IC50 [1]: > 100 µM
- IC50 [2]: > 100 µM
Compound: CC#CCn1c(N2CCC[C@@H](N)C2)nc2c1c(=O)n(Cc1cc(C#N)ccc1C(=O)O)c(=O)n2C

- IC50 [1]: > 100 µM
- IC50 [2]: > 100 µM
Compound: CC#CCn1c(N2CCC[C@@H](N)C2)nc2c1c(=O)n(Cc1cc(Br)ccc1C(=O)O)c(=O)n2C

- Cmax [22]: 14600 ng/mL
- IC50 [1]: > 100 µM
- half-life [23]: 49.2 min
- AUC(0-inf) [24]: 4860 ng·h/mL
- clearance [25]: 17.2 mL/min/kg
- IC50 [2]: > 100 µM
Compound: CC#CCn1c(N2CCC[C@@H](N)C2)nc2c1c(=O)n(Cc1cc(Cl)ccc1C(=O)O)c(=O)n2C

- Cmax [22]: 12200 ng/mL
- IC50 [1]: > 100 µM
- half-life [23]: 15.6 min
- AUC(0-inf) [24]: 3930 ng·h/mL
- clearance [25]: 21.7 mL/min/kg
- IC50 [2]: > 100 µM
Compound: CC#CCn1c(N2CCC[C@@H](N)C2)nc2c1c(=O)n(Cc1cc(OC)ccc1C(=O)O)c(=O)n2C

Continued, compound first:

Compound: CC#CCn1c(N2CCC[C@@H](N)C2)nc2c1c(=O)n(Cc1cc(Cl)ccc1C(=O)OC)c(=O)n2C
- IC50 [1]: > 100 µM
- IC50 [2]: > 100 µM

Compound: CC#CCn1c(N2CCC[C@@H](N)C2)nc2c1c(=O)n(Cc1ccc(Cl)cc1C(=O)OCC)c(=O)n2C
- Activity [3]: Active
- t1/2 [4]: 6.97 h
- IC50 [1]: > 100 µM
- inhibition in vivo at 10 mg/kg [5]: > 80%
- Tmax [6]: 30 min
- Cmax [7]: 401.06 µg/L
- half-life [8]: 481 min
- Tmax [9]: 30 min
- remaining at 2 h, 1 µM [10]: 70.2%
- CL [11]: 0.35 L/h/kg
- viability at 48 h, 20 µM [12]: 80%
- AUC [13]: 4.53625 µg·h/mL
- Cmax [14]: 508 ng/mL
- CL [15]: 0.23 L/h/kg
- IC50 [2]: > 100 µM
- F [16]: 15.6%
- remaining at 2 h, 1 µM [17]: 99.5%
- AUC [18]: 3.00117 µg·h/mL

Compound: Cn1c(=O)cc(N2CCC[C@@H](N)C2)n(Cc2ccccc2C#N)c1=O [ALOGLIPTIN]
- Activity [19]: 13.2%
- inhibition in vivo at 10 mg/kg [5]: > 80%
- Activity [20]: 10.35%
- Activity [21]: 45%

Compound: CC#CCn1c(N2CCC[C@@H](N)C2)nc2c1c(=O)n(Cc1c(OC)cccc1C(=O)O)c(=O)n2C
- IC50 [1]: > 100 µM
- IC50 [2]: > 100 µM

Compound: CC#CCn1c(N2CCC[C@@H](N)C2)nc2c1c(=O)n(Cc1ccc(Br)cc1C(=O)OCC)c(=O)n2C
- IC50 [1]: > 100 µM
- remaining at 2 h, 1 µM [10]: 62.2%
- viability at 48 h, 20 µM [12]: 50%
- IC50 [2]: > 100 µM
- remaining at 2 h, 1 µM [17]: 98.4%

Compound: CC#CCn1c(N2CCC[C@@H](N)C2)nc2c1c(=O)n(Cc1ccc(Br)cc1C(=O)OCc1oc(=O)oc1C)c(=O)n2C
- degraded at 2 h, 1 µM [26]: 100%
- metabolised at 5 min, 1 µM [27]: 50%
- metabolised at 2 h, 1 µM [28]: 100%
- remaining at 2 h, 1 µM [10]: 2.11%
- remaining at 2 h, 1 µM [17]: 8.32%

Compound: CC#CCn1c(N2CCC[C@@H](N)C2)nc2c1c(=O)n(Cc1ccc(Cl)cc1C(=O)OCc1oc(=O)oc1C)c(=O)n2C
- degraded at 2 h, 1 µM [26]: 100%
- metabolised at 5 min, 1 µM [27]: 50%
- metabolised at 2 h, 1 µM [28]: 100%
- remaining at 2 h, 1 µM [10]: 1.25%
- remaining at 2 h, 1 µM [17]: 12%
